In patent US20140336193A1, “POTENT NON-UREA INHIBITORS OF SOLUBLE EPOXIDE HYDROLASE” (priority 2012, published 2014):

Experiments:
[1] = molecular target: T1, Human sEH (Homo sapiens, UniProt P34913); assay: Fluorescent assay with CMNPC substrate (Example 2); assay type: biochemical
T1 sequence (P34913 1-555): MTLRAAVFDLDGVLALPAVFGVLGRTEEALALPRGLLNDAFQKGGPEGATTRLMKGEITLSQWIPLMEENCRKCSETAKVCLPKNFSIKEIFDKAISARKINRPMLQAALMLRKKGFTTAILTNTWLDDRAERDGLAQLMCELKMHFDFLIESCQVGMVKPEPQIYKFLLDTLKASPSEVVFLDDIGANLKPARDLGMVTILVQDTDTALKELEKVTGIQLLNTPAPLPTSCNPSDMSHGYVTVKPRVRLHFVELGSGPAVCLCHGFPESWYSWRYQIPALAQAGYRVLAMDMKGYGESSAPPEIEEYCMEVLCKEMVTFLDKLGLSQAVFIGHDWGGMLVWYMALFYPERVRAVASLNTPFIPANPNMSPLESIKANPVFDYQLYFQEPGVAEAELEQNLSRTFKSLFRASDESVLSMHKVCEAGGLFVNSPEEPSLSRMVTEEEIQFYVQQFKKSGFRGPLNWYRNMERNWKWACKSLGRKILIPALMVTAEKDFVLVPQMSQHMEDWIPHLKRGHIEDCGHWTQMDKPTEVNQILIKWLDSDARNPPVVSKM
Procedure: A fluorescent assay was employed for high throughput screening (HTS) of inhibitors of sEH. Cyano(2-methoxynaphthalen-6-yl)methyl trans-(3-phenyloxyran-2-yl)methyl carbonate (CMNPC) was used as the fluorescent substrate. Human sEH (1 nM) was incubated with a compound of Formula I for 5 min in pH 7.0 Bis-Tris/HCl buffer (25 mM) containing 0.1 mg/mL of BSA at 30° C. prior to substrate introduction ([S]=5 μM). […] IC50 values are the average of the three replicates with at least two datum points above and at least two below the IC50.

[2] = In vitro human liver microsomal metabolic stability (Example 4); assay type: in vitro ADME; details: for CLint scaled / half-life: pooled human liver microsomes; for CLint scaled: apparent intrinsic clearance, human liver microsomes; for half-life: half life in human liver microsomes, averages of duplicate determination, read-out: hLM t1/2
Procedure: The stability of sEH inhibitors in a human liver microsomal assay was determined as a predictor of in vivo oxidative metabolism. Microsomal stability was assessed in pooled human liver microsomes (Celsis, Edison, N.J.). All reactions were carried out for 90 min at 37° C. in an NADPH-generating system consisting of glucose 6-phosphate, glucose 6-phosphate dehydrogenase, and NADP^+ (Sigma, St. Louis, Mo.). Positive control incubations proceeded with 7-ethoxycoumarin as the substrate. Reactions were terminated by adding methanol. The mixtures were centrifuged and the supernatants were evaporated. The residues were reconstituted in mobile phase (85% ACN; 15% H2O) and subjected to LC/MS analysis.

[3] = molecular target: T1, Human sEH; assay: biochemical; details: Table 1

For `Cc1ccc(S(=O)(=O)N2CCC(C(=O)N[C@@H]3C[C@H]3c3ccccc3)CC2)c(C)c1` [Compound 7-3], the IC50 [1] was 5.2 nM, the CLint scaled [2] was 90 mL/min/kg and the half-life [2] was 14 min.

In the case of `Cc1ccc(S(=O)(=O)N2CCC(C(=O)NC3CCCCC3)CC2)c(C)c1` [Compound 7-6], the CLint scaled [2] is reported as 90 mL/min/kg and the half-life [2] is reported as 14 min.

Work on `Cc1ccc(S(=O)(=O)N2CCC(C(=O)NC3CCCc4ccccc43)CC2)c(C)c1` (centres unmarked) [Compound 7-8] yielded an IC50 [1] of 0.6 nM.

`Cc1ccc(S(=O)(=O)N2CCC(C(=O)NCC3CCCCC3)CC2)c(C)c1` [Compound 7-9] gave a CLint scaled [2] of 520 mL/min/kg and a half-life [2] of 2.4 min.

Work on `Cc1ccc(S(=O)(=O)N2CCC(C(=O)NC34CC5CC(CC(C5)C3)C4)CC2)c(C)c1` [Compound 7-11] yielded an IC50 [1] of 8.5 nM, a CLint scaled [2] of 340 mL/min/kg and a half-life [2] of 3.7 min.

With `Cc1ccc(S(=O)(=O)N2CCC(C(=O)Nc3ccccc3)CC2)c(C)c1` [Compound 7-12] the IC50 [1] was 23 nM.

With `Cc1ccc(S(=O)(=O)N2CCC(C(=O)Nc3ccccc3F)CC2)c(C)c1` [Compound 7-13] the IC50 [1] was 20 nM.

`Cc1ccc(S(=O)(=O)N2CCC(C(=O)Nc3ccccc3Cl)CC2)c(C)c1` [Compound 7-14] gave an IC50 [1] of 250 nM.

`Cc1ccc(S(=O)(=O)N2CCC(C(=O)Nc3ccccc3Br)CC2)c(C)c1` [Compound 7-15] gave an IC50 [1] of 30 nM.

`Cc1ccc(S(=O)(=O)N2CCC(C(=O)Nc3ccccc3C)CC2)c(C)c1` [Compound 7-16] gave an IC50 [1] of 640 nM.

Work on `Cc1ccc(S(=O)(=O)N2CCC(C(=O)Nc3ccccc3O)CC2)c(C)c1` [Compound 7-17] yielded an IC50 [1] of 2200 nM.

`Cc1ccc(S(=O)(=O)N2CCC(C(=O)Nc3ccc(O)cc3)CC2)c(C)c1` [Compound 7-19] gave an IC50 [1] of 55 nM.

With `Cc1ccc(S(=O)(=O)N2CCC(C(=O)Nc3ccc(Oc4ccccc4)cc3)CC2)c(C)c1` [Compound 7-20] the IC50 [1] was 6 nM, the CLint scaled [2] was 120 mL/min/kg and the half-life [2] was 11 min.

Compound `COC(=O)c1ccc(NC(=O)C2CCN(S(=O)(=O)c3ccc(C)cc3C)CC2)cc1` [Compound 7-21] has an IC50 [1] of 13 nM.

In the case of `Cc1ccc(S(=O)(=O)N2CCC(C(=O)Nc3ccc(C(=O)O)cc3)CC2)c(C)c1` [Compound 7-22], the IC50 [1] is reported as 110 nM.

For `Cc1ccc(S(=O)(=O)N2CCC(C(=O)Nc3ccc(OC(F)(F)F)cc3)CC2)c(C)c1` [Compound 7-23], the IC50 [1] was 5.2 nM, the CLint scaled [2] was 28 mL/min/kg and the half-life [2] was 46 min.

With `Cc1ccc(S(=O)(=O)N2CCC(C(=O)Nc3ccc([N+](=O)[O-])cc3)CC2)c(C)c1` [Compound 7-24] the IC50 [1] was 4.6 nM, the CLint scaled [2] was 7 mL/min/kg and the half-life [2] was 180 min.

In the case of `Cc1ccc(S(=O)(=O)N2CCC(C(=O)Nc3ccc(N4CCCCC4)cc3)CC2)c(C)c1` [Compound 7-25], the IC50 [1] is reported as 29 nM and the “in vitro metabolic stability in human liver microsomes, in words” value (“in vitro metabolic stability” below) [2] is reported as “intermediate metabolic profiles”.

In the case of `Cc1ccc(S(=O)(=O)N2CCC(C(=O)Nc3ccc(N4CCCCC4)c(C(N)=O)c3)CC2)c(C)c1` [Compound 7-26], the IC50 [1] is reported as 102 nM and the “in vitro metabolic stability” value [2] is reported as “intermediate metabolic profiles”.

Work on `Cc1ccc(S(=O)(=O)N2CCC(C(=O)Nc3ccc(N4CCOCC4)cc3)CC2)c(C)c1` [Compound 7-27] yielded an IC50 [1] of 41 nM.

`Cc1ccc(S(=O)(=O)N2CCC(C(=O)Nc3ccc(C(C)C)cc3)CC2)c(C)c1` [Compound 7-28] gave an IC50 [1] of 2.8 nM.

In the case of `Cc1ccc(S(=O)(=O)N2CCC(C(=O)Nc3ccc(C(F)(F)F)cc3)CC2)c(C)c1` [Compound 7-29], the IC50 [1] is reported as 6.9 nM.

In the case of `Cc1ccc(S(=O)(=O)N2CCC(C(=O)Nc3ccc(S(=O)(=O)C(F)(F)F)cc3)CC2)c(C)c1` [Compound 7-30], the IC50 [1] is reported as 8.7 nM.

With `Cc1ccc(S(=O)(=O)N2CCC(C(=O)Nc3cccc(C(F)(F)F)c3)CC2)c(C)c1` [Compound 7-31] the IC50 [1] was 20 nM.

Work on `Cc1ccc(S(=O)(=O)N2CCC(C(=O)Nc3ccc(F)cc3)CC2)c(C)c1` [Compound 7-32] yielded an IC50 [1] of 25 nM.

Compound `Cc1ccc(S(=O)(=O)N2CCC(C(=O)Nc3ccc(Cl)cc3)CC2)c(C)c1` [Compound 7-33] has an IC50 [1] of 20 nM.

`Cc1ccc(S(=O)(=O)N2CCC(C(=O)Nc3ccc(Br)cc3)CC2)c(C)c1` [Compound 7-34] gave an IC50 [1] of 17 nM.

`Cc1ccc(S(=O)(=O)N2CCC(C(=O)Nc3cc(Cl)cc(Cl)c3)CC2)c(C)c1` [Compound 7-35] gave an IC50 [1] of 12 nM.

With `Cc1ccc(S(=O)(=O)N2CCC(C(=O)Nc3ccc(Cl)c(C(F)(F)F)c3)CC2)c(C)c1` [Compound 7-36] the IC50 [1] was 43 nM.

In the case of `Cc1ccc(S(=O)(=O)N2CCC(C(=O)Nc3ccc(Cl)c(Cl)c3)CC2)c(C)c1` [Compound 7-37], the IC50 [1] is reported as 6.7 nM, the CLint scaled [2] is reported as 50 mL/min/kg and the half-life [2] is reported as 25 min.

Work on `Cc1ccc(S(=O)(=O)N2CCC(C(=O)Nc3ccc4ccccc4c3)CC2)c(C)c1` [Compound 7-38] yielded an IC50 [1] of 1.6 nM, a CLint scaled [2] of 35 mL/min/kg and a half-life [2] of 36 min.

Work on `Cc1ccc(S(=O)(=O)N2CCC(C(=O)Nc3cnc4ccccc4c3)CC2)c(C)c1` [Compound 7-40] yielded an IC50 [1] of 45 nM.

For `Cc1ccc(S(=O)(=O)N2CCC(C(=O)Nc3ccc4ncccc4c3)CC2)c(C)c1` [Compound 7-41], the IC50 [1] was 78 nM.

Compound `COC(=O)c1ccc2cc(NC(=O)C3CCN(S(=O)(=O)c4ccc(C)cc4C)CC3)ccc2c1` [Compound 7-43] has an IC50 [1] of 2.3 nM.

For `Cc1ccc(S(=O)(=O)N2CCC(C(=O)Nc3ccc4cc(C(=O)O)ccc4c3)CC2)c(C)c1` [Compound 7-44], the IC50 [1] was 23 nM, the “in vitro metabolic stability” value [2] was “excellent in vitro metabolic stability” and the CLint scaled [2] was 5.6 mL/min/kg. For the same compound, the half-life [2] was 220 min.

Work on `Cc1ccc(S(=O)(=O)N2CCC(C(=O)Nc3ccc4c(c3)OCO4)CC2)c(C)c1` [Compound 7-45] yielded an IC50 [1] of 0.6 nM, a CLint scaled [2] of 35 mL/min/kg and a half-life [2] of 36 min.

For `Cc1ccc(S(=O)(=O)N2CCC(C(=O)NC34CC5CC(CC(C5)C3)C4)CC2)c(C)c1` [Compound 2535], the IC50 [3] was 8.5 nM.

`Cc1ccc(S(=O)(=O)N2CCC(C(=O)NC3C[C@@H]3c3ccccc3)CC2)c(C)c1` (some centres unmarked) [Compound 2536] gave an IC50 [3] of 5.2 nM.

Compound `Cc1ccc(S(=O)(=O)N2CCC(C(=O)Nc3ccc4cc(C(=O)O)ccc4c3)CC2)c(C)c1` [Compound 2590] has an IC50 [3] of 23.2 nM.
